From US20030064434A1, “Novel G Protein-coupled receptor, GAVE1” (Aventis Pharmaceuticals, Inc., priority 2001, published 2003)

How the values were obtained:
[1] = test system: GAVE1 expression in rat cardiac myocytes; test: Northern blot of GAVE1 RNA levels in cardiomyocytes exposed to phenylephrine; format: cell-based; conditions: rat cardiac myocytes stimulated 48 hours with 10^-5 M phenylephrine; compared to control (untreated) or vehicle-treated myocytes
Experimental: FIG. 7 is a computer representation of a Northern blot depicting GAVE1 RNA levels of cardiomyocytes expressing GAVE1 exposed to medium, vehicle and vehicle containing phenylephrine.
Northern blot analysis is performed on RNA derived from several human tissue samples to determine whether the tissues express the hGAVE1 receptor gene. The probe used is P^32-labeled hGAVE1 cDNA.
P32-labeled hGAVE1 cDNA is prepared as follows. Twenty-five ng hGAVE1 cDNA prepared as described above is resuspended to 45 μl of 10 mM Tris-HCl, pH 7.5; 1 mM EDTA in a microfuge tube and heated at 95° C. for 5 minutes. The tube then is chilled on ice for another 5 minutes. Following chilling, the mixture contained in the tube is resuspended with the 45 μl GAVE1 cDNA and buffer as described above and mixed with RTS Rad Prime Mix (supplied with the RTS Rad Prime DNA-labeling System) (Life Technologies, Catalog No. 10387-017). Five μl of P^32-labeled α-dCTP, specific activity: 3000 Ci/mM, (Amersham, AA0005) is added while mixing gently but thoroughly. The resulting mixture is incubated at 37° C. for 10 minutes. Incubation is stopped by the addition of 5 μl of 0.2 M EDTA, pH 8.0. Incorporation of the radioactive alpha-dCTP into the hGAVE1 cDNA is evaluated by taking a 5 μl aliquot of the mixture and counting the radioactivity. […]

GAVE1 (Homo sapiens) = test: FLIPR assay, change in fluorescence of GAVE1 expressing CHO cells; format: cell-based; conditions: CHO cells expressing GAVE1, increasing amounts of ligand; untransformed CHO cells show control level
Sequence of GAVE1 (Homo sapiens) (P21453 whole entry): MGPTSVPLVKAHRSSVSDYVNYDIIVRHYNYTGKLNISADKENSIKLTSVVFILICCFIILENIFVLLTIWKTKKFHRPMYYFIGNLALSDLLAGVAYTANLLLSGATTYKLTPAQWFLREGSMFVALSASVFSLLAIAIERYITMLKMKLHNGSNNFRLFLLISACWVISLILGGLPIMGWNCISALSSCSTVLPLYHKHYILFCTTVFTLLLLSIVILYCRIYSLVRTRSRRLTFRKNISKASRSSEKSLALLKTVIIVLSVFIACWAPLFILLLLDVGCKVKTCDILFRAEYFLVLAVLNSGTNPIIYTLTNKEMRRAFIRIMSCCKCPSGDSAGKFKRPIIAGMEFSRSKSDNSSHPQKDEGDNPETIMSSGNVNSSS
Description: To screen for agonists of human GAVE1, hGAVE1 is artificially coupled to a Gq signaling package. Activation of the Gq mechanism stimulates the release of Ca^2+ from sarcoplasmic reticulum vesicles within the cell. The Ca^2+ is released into the cytoplasm where it can be detected using Ca^2+ chelating dyes. A Fluorometric Imaging Plate Reader or FLIPR® apparatus (Molecular Devices) is used to monitor any resulting changes in fluorescence. The activity of an agonist is reflected by an increase in fluorescence.
CHO-K1 cells expressing hGAVE1 are pre-engineered to express an indiscriminate form of Gq protein (Gα16). […]
A compound library containing possible agonists will be tested at 10 μM concentration in physiological salt buffer. Changes in fluorescence are measured for 10 seconds prior to compound addition. After the addition of the compound, fluorescence is measured every second for the first minute followed by exposures taken every six seconds for a total experimental analysis time of three minutes. […] The maximum fluorescence changes for the first 80 scans is recorded as a measure of agonist activity and compared to the maximum fluorescence change induced by 10 μM ATP (Sigma A9062).

Row | Structure (SMILES) | level of GAVE1 expression [1] | change in fluorescence (GAVE1 activity) (GAVE1 (Homo sapiens))
1 | CNC[C@H](O)c1cccc(O)c1 [phenylephrine] | up-regulated several-fold | –
2 | CCCCCCCCCCCCC/C=C/[C@@H](O)[C@@H](N)COP(=O)(O)O [S1P, sphingosine-1-phosphate] | – | positive correlation of activity with increasing amounts of ligand
